# According to patent US9102648B1, “Bioavailable diacylhydrazine ligands for modulating the expression of exogenous genes via an ecdysone receptor complex” (Intrexon Corporation, priority 2003, dated 2015):
# Assays:
# [1] = target: GAL4 DBD-CfEcR(DEF)/VP16AD-MmRXRE (Choristoneura fumiferana, UniProt O77240); assay: 13B3 Assay (CHO stable cell line, luciferase reporter); conditions: for Fold Induction, 13B3 Assay, 3.3 uM: 3.3 uM ligand; for Fold Induction, 13B3 Assay, 3.3 uM / Fold Induction, 13B3 Assay, 33 uM: RLU ligand treated / RLU DMSO treated cells; for Fold Induction, 13B3 Assay, 3.3 uM / Fold Induction, 13B3 Assay, 33 uM / EC50: average of two wells; for Fold Induction, 13B3 Assay, 33 uM: 33 uM ligand; for 13B3 assay Rel Max FI: maximum fold induction at any concentration relative to that of GS-E ligand, CHO 13B3 cells; for EC50: read-out: 13B3 EC50, CHO 13B3 stable cell line, luciferase reporter, 48 h
# Outline: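 Ligands dosed at 8 levels from 33 to 0.01 μM (DMSO stocks diluted 300-fold) onto the 13B3 CHO line carrying GAL4-DBD/CfEcR-DEF, VP16/MmRXR-DE and a GAL4-responsive luciferase gene.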
# [2] = target: T1, Bombyx mori EcR (VP16 fusion, CVBE switch construct) (Bombyx mori, UniProt P49881); assay: Z3 Assay (HEK-293 cells with CVBE and 6XEcRE LacZ, β-galactosidase reporter); conditions: for Fold Induction, Z3 Assay, 3.3 uM: 3.3 uM ligand; for Fold Induction, Z3 Assay, 3.3 uM / Fold Induction, Z3 Assay, 33 uM: ligand treated / DMSO treated cells; for Fold Induction, Z3 Assay, 3.3 uM / Fold Induction, Z3 Assay, 33 uM / EC50: average of two wells; for Fold Induction, Z3 Assay, 33 uM: 33 uM ligand; for Z3 assay Rel Max FI: maximum fold induction at any concentration relative to that of GS-E ligand; for Z3 assay Rel Max FI / EC50: HEK-293 Z3 cells; for EC50: read-out: Z3 assay EC50, β-galactosidase reporter
# T1 sequence (P49881 86-606): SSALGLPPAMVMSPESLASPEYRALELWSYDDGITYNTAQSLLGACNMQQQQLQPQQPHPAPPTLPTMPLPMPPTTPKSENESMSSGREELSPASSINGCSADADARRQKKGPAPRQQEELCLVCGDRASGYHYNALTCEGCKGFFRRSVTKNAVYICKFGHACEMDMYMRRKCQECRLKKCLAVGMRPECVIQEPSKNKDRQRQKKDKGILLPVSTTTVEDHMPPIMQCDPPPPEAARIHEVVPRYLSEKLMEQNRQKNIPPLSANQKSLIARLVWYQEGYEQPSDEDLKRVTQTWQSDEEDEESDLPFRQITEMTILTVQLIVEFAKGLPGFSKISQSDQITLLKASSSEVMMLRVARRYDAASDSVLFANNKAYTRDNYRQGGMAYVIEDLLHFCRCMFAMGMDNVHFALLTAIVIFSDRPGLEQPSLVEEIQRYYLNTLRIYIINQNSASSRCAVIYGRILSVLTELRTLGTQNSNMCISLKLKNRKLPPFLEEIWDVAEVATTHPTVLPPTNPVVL
# T1 sequence (P19793 1-462 partner): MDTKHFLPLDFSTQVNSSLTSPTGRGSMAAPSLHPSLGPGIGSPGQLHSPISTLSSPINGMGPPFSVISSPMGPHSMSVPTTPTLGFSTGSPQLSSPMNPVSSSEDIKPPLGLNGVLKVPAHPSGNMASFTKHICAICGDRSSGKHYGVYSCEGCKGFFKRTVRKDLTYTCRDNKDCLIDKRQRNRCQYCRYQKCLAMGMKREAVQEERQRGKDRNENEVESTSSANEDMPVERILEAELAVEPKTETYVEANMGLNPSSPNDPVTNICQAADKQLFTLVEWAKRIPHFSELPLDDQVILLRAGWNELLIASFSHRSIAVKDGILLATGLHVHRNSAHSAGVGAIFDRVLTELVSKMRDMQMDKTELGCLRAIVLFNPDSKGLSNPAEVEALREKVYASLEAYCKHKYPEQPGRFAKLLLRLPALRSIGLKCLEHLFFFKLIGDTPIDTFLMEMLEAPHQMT
Compound,"Fold Induction, 13B3 Assay, 3.3 uM [1]","Fold Induction, 13B3 Assay, 33 uM [1]",13B3 assay Rel Max FI [1],EC50 [1] [nM],"Fold Induction, Z3 Assay, 3.3 uM [2]","Fold Induction, Z3 Assay, 33 uM [2]",Z3 assay Rel Max FI [2],EC50 [2] [nM]
COc1cc(Cl)ccc1C(=O)N(NC(=O)c1cccc(OC)c1C)C(C)(C)C [RG-100848],3391,578,0.666,1640,885,26,0.996,240
CCc1c(C(=O)NN(C(=O)c2cc(C)cc(C)c2)C(C)(C)C)ccc2c1OC(C)O2 (stereo not drawn) [RG-101659],1556,1185,0.867,562,954,876,,214
Cc1cc(C)cc(C(=O)N(NC(=O)c2cccc(OC(F)(F)F)c2C)C(C)(C)C)c1 [RG-101692],4180,170,1.004,728,435,860,0.975,309
C=Cc1c(OC)cccc1C(=O)NN(C(=O)c1cc(C)cc(C)c1)C(C)(C)C [RG-102021],4081,,1.136,4040,417,,0.920,513
Cc1cc(C)cc(C(=O)N(NC(=O)c2cc3c(cc2Cl)OCO3)C(C)(C)C)c1 [RG-101171],,8453,,,,268,,3240
Cc1cc(C)cc(C(=O)N(NC(=O)c2ccc3c(c2)OC(C)O3)C(C)(C)C)c1 (stereo not drawn) [RG-101511],1912,744,0.811,794,947,487,1.122,468
CC(C)(C)N(NC(=O)c1ccc2c(c1)OCO2)C(=O)c1ccc(F)cc1Cl [RG-101048],,701,,,,283,,19100
COc1cc(C(=O)NN(C(=O)c2cc(C)cc(C)c2)C(C)(C)C)ccc1C [RG-101585],,1015,,,,330,,4900
CCc1ccc(C(=O)NN(C(=O)c2cc(C)c(C)c(Cl)c2)C(C)(C)C)cc1 [RG-101863],3187,207,0.837,728,832,374,0.953,257
